Measurements: US3954733A, “Naphthyridine-3-carboxamido-benzylpenicillins and salts thereof” (Sumitomo Chemical Company, Limited, priority 1973, dated 1976)
Converted amounts (≈) assume the structure as drawn.

Key:
Experiment in all cases: minimal inhibitory concentration, agar dilution method
Format in all cases: cell-based
Proteus vulgaris HV19 = test system: Proteus vulgaris HV19
Proteus miravilis GN2425 = test system: Proteus miravilis GN2425
Escherichia coli NIHJ = test system: Escherichia coli NIHJ
Text: (§1) When determined according to the agar dilution method, the penicillins (I) afford the minimal inhibitory concentrations against test microorganisms as shown in Table 2.

[1] = test system: Staphylococcus aureus 209P
Text: as §1

[2] = test system: Pseudomonas aeruginosa 104
Text: as §1

| MIC (Proteus vulgaris HV19) [µg/mL] | MIC (Proteus miravilis GN2425) [µg/mL] | MIC (Escherichia coli NIHJ) [µg/mL] | MIC [1] [µg/mL] | MIC [2] [µg/mL] | SMILES |
| --- | --- | --- | --- | --- | --- |
| 0.2 (≈ 0.373 µM) | 3.13 (≈ 5.83 µM) | 6.25 (≈ 11.6 µM) | 0.78 (≈ 1.45 µM) | 6.25 (≈ 11.6 µM) | CC1(C)S[C@@H]2[C@H](NC(=O)[C@H](NC(=O)c3cc4ccccc4nc3O)c3ccc(O)cc3)C(=O)N2[C@H]1C(=O)O [Example 27] |
| 0.05 (≈ 0.0835 µM) | 3.13 (≈ 5.23 µM) | 3.13 (≈ 5.23 µM) | 0.78 (≈ 1.3 µM) | 3.13 (≈ 5.23 µM) | COc1nc(OC)c2c(O)c(C(=O)N[C@@H](C(=O)N[C@@H]3C(=O)N4[C@@H]3SC(C)(C)[C@@H]4C(=O)O)c3ccc(O)cc3)cnc2n1 [Example 28] |
| 0.2 (≈ 0.372 µM) | 12.5 (≈ 23.3 µM) | 12.5 (≈ 23.3 µM) | 0.78 (≈ 1.45 µM) | 6.25 (≈ 11.6 µM) | CC1(C)S[C@@H]2[C@H](NC(=O)[C@H](NC(=O)c3cnc4ccncc4c3O)c3ccc(O)cc3)C(=O)N2[C@H]1C(=O)O [Example 29] |
| 0.05 (≈ 0.0733 µM) | 3.13 (≈ 4.59 µM) | 6.25 (≈ 9.17 µM) | 0.78 (≈ 1.14 µM) | 6.25 (≈ 9.17 µM) | CC(C)COC(=O)Oc1ccc([C@@H](NC(=O)c2cnc3nc(N(C)C)ncc3c2O)C(=O)N[C@@H]2C(=O)N3[C@@H]2SC(C)(C)[C@@H]3C(=O)O)cc1 [Example 30] |
| 0.1 (≈ 0.176 µM) | 3.13 (≈ 5.52 µM) | 3.13 (≈ 5.52 µM) | 0.78 (≈ 1.38 µM) | 3.13 (≈ 5.52 µM) | Cc1nc(C)c2c(O)c(C(=O)N[C@@H](C(=O)N[C@@H]3C(=O)N4[C@@H]3SC(C)(C)[C@@H]4C(=O)O)c3ccc(O)cc3)cnc2n1 [Example 31] |
| 0.05 (≈ 0.0874 µM) | 6.25 (≈ 10.9 µM) | 3.13 (≈ 5.47 µM) | 0.78 (≈ 1.36 µM) | 3.13 (≈ 5.47 µM) | CC1(C)S[C@@H]2[C@H](NC(=O)[C@H](NC(=O)c3cnc4cccnc4c3O)c3ccc(O)c(Cl)c3)C(=O)N2[C@H]1C(=O)O [Example 32] |
| 0.1 (≈ 0.167 µM) | 3.13 (≈ 5.23 µM) | 3.13 (≈ 5.23 µM) | 0.78 (≈ 1.3 µM) | 6.25 (≈ 10.4 µM) | CCOC(=O)Oc1ccc([C@@H](NC(=O)c2cnc3cn[nH]c3c2O)C(=O)N[C@@H]2C(=O)N3[C@@H]2SC(C)(C)[C@@H]3C(=O)O)cc1 [Example 33] |
| 0.05 (≈ 0.0928 µM) | 1.56 (≈ 2.9 µM) | 1.56 (≈ 2.9 µM) | 0.78 (≈ 1.45 µM) | 1.56 (≈ 2.9 µM) | CC1(C)S[C@@H]2[C@H](NC(=O)[C@H](NC(=O)c3cnc4cncnc4c3O)c3ccc(O)cc3)C(=O)N2[C@H]1C(=O)O [Example 34] |
| 0.025 (≈ 0.0441 µM) | 1.56 (≈ 2.75 µM) | 1.56 (≈ 2.75 µM) | 0.78 (≈ 1.38 µM) | 1.56 (≈ 2.75 µM) | Cc1nc(C)c2ncc(C(=O)N[C@@H](C(=O)N[C@@H]3C(=O)N4[C@@H]3SC(C)(C)[C@@H]4C(=O)O)c3ccc(O)cc3)c(O)c2n1 [Example 35] |
| 0.05 (≈ 0.0746 µM) | 3.13 (≈ 4.67 µM) | 3.13 (≈ 4.67 µM) | 0.78 (≈ 1.16 µM) | 3.13 (≈ 4.67 µM) | CCOC(=O)Oc1ccc([C@@H](NC(=O)c2cnc3c(OC)nc(OC)nc3c2O)C(=O)N[C@@H]2C(=O)N3[C@@H]2SC(C)(C)[C@@H]3C(=O)O)cc1 [Example 36] |
| 0.025 (≈ 0.0367 µM) | 1.56 (≈ 2.29 µM) | 1.56 (≈ 2.29 µM) | 0.78 (≈ 1.14 µM) | 1.56 (≈ 2.29 µM) | CCOC(=O)Oc1ccc([C@@H](NC(=O)c2cnc3cccnc3c2OC(=O)OCC)C(=O)N[C@@H]2C(=O)N3[C@@H]2SC(C)(C)[C@@H]3C(=O)O)cc1 [Example 37] |
| 0.05 (≈ 0.0799 µM) | 1.56 (≈ 2.49 µM) | 1.56 (≈ 2.49 µM) | 0.78 (≈ 1.25 µM) | 1.56 (≈ 2.49 µM) | CCOC(=O)Oc1ccc([C@@H](NC(=O)c2cnc3cccnc3c2S)C(=O)N[C@@H]2C(=O)N3[C@@H]2SC(C)(C)[C@@H]3C(=O)O)cc1 [Example 39] |
| 0.2 (≈ 0.321 µM) | 6.25 (≈ 10 µM) | 12.5 (≈ 20.1 µM) | 1.56 (≈ 2.51 µM) | 6.25 (≈ 10 µM) | CC1(C)S[C@@H]2[C@H](NC(=O)C(NC(=O)c3cnc4cccnc4c3S)c3cc(Cl)c(O)c(Cl)c3)C(=O)N2[C@H]1C(=O)O (some centres unmarked) [Example 40] |
| 0.2 (≈ 0.352 µM) | 6.25 (≈ 11 µM) | 6.25 (≈ 11 µM) | 1.56 (≈ 2.74 µM) | 3.13 (≈ 5.51 µM) | COc1cnc2c(O)c(C(=O)N[C@@H](C(=O)N[C@@H]3C(=O)N4[C@@H]3SC(C)(C)[C@@H]4C(=O)O)c3ccc(O)cc3)cnc2n1 [Example 41] |
| 0.2 (≈ 0.325 µM) | 6.25 (≈ 10.2 µM) | 3.13 (≈ 5.08 µM) | 0.78 (≈ 1.27 µM) | 6.25 (≈ 10.2 µM) | CCOC(=O)Oc1ccc([C@@H](NC(=O)c2cnc3scnc3c2O)C(=O)N[C@@H]2C(=O)N3[C@@H]2SC(C)(C)[C@@H]3C(=O)O)cc1 [Example 42] |
| 0.025 (≈ 0.0452 µM) | 1.56 (≈ 2.82 µM) | 1.56 (≈ 2.82 µM) | 0.78 (≈ 1.41 µM) | 1.56 (≈ 2.82 µM) | CC1(C)S[C@@H]2[C@H](NC(=O)[C@H](NC(=O)c3cnc4cccnc4c3S)c3ccc(O)cc3)C(=O)N2[C@H]1C(=O)O [Example 43] |
